According to patent US20220112225A1, “ANANDAMIDE COMPOUNDS” (priority 2019, published 2022):

Key:
hMfsd2a = target: T1, hMfsd2a (Homo sapiens, UniProt Q8NA29); assay: In vitro Mfsd2a transport, thin layer chromatography (TLC) analysis; format: cell-based; details: transfected HEK293 cells, 50 μM test compound, 1 hour, iodine and cupric acetate stain
T1 construct: expressed in transfected cells; host or cells: HEK293
T1 sequence (Q8NA29 1-530 isoform Q8NA29-2): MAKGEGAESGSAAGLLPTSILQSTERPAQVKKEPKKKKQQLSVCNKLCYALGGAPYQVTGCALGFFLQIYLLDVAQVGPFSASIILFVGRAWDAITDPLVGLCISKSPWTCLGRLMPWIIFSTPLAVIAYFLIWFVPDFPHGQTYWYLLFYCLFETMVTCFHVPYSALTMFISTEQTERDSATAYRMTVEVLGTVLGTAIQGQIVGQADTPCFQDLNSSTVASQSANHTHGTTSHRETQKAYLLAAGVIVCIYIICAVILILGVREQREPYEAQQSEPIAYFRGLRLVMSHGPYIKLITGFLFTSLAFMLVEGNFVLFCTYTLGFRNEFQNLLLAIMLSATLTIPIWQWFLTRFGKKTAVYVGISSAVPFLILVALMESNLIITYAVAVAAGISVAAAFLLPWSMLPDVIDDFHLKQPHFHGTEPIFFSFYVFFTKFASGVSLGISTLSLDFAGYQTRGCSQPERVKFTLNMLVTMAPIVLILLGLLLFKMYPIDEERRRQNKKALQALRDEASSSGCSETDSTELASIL
Method: The assay was conducted in a low throughput 6-well format with HEK293 cells prepared and then transfected in duplicate wells with plasmids containing either the wildtype (WT) version of hMfsd2a, the D97A mutant version, or an empty vector as control. Uptake into the ceils was assessed by both thin-layer chromatography (TLC) and ultrahigh performance liquid chromatography hyphenated mass spectrometry.
HEK293 cells were seeded at 6.25×10^5 per 6-well in 2 mL of DMEM with 10% FBS and 1% penicillin-streptomycin (P/S) media (Sigma) and incubated overnight at 37° C. in 5% CO2. Cells were checked for confluency the next morning. On a per well basis the following lipid mix was generated, 6 μL of Lipofectamine 2000 was added dropwise to 200 μL of OptiMEM, this was left to stand for 5 minutes at room temperature (RT). 1 μg of hMfsd2a WT, D97A or empty plasmid was prepared in 200 μL of OptiMEM as appropriate for each well; the Lipofectamine 2000 in OptiMEM solution was then added dropwise to a total volume of 400 μL (this can be scaled to support the number of wells/plates to be assayed). This transfection preparation was then incubated at RT for 20 minutes. DMEM with 10% FBS and no P/S media was warmed to 37° C., the HEK293 plate media was changed and the cells washed carefully with 1 mL of the warmed DMEM with 10% FBS no P/S media, 1.6 mL of the warmed DMEM with 10% FBS no P/S media was then added to each well. 400 μL of the transfection preparation was then added dropwise to each well as appropriate and the plate was gently swirled in a circular motion. The plate was then incubated overnight at 37° C. in 5% CO2.
Compound Incubation and Preparation of Analysis Samples Compound stock solutions were prepared in a 12% BSA in PBS solution such that a 40 μL spike into 2 ml, of plain DMEM would yield a concentration of 50 μM of test compound (the compound treated media). Remaining compound stock solution in 12% BSA in PBS was frozen at −20° C. to allow for media stability testing. The HEK293 6-well plate was removed from the incubator and the wells gently rinsed with 1 mL of plain DMEM that had been prewarmed to 37° C. 2 mL of the compound treated media was then added to each well. A 100 μL sample of the compound treated media was sampled to represent a T=0 h sample; 5 μL of this sample (the remainder was reserved and frozen in case of re-analysis being required) was diluted with 45 μL of DMEM and crashed with 50 μL MeCN in a 96-well plate which was sealed and kept on ice. The HEK293 6-well plate was then incubated at 37° C. in 5% CO2 for 1 hour, the plate was then removed from the incubator and a 100 μL sample of media taken from each well to represent a T=1 h sample; 5 μL of this sample (the remainder was reserved and frozen in case of re-analysis being required) was diluted with 45 μL of DMEM and crashed with 50 μL MeCN into the 96-well plate which was re-sealed and stored at −20° C. The remaining media was then removed from the HEK293 6-well plate, the wells were gently rinsed twice with 1 mL of 0.5% BSA in DMEM, the media was then removed and the 6-well plate allowed to dry completely at RT. 1 ml of 3:2 Hexane:Isopropanol (HIP) was added to each well in a fume cupboard and the plate allowed to stand for 30 minutes at RT without shaking. The HIP solution was then transferred to 2 mL Eppendorf tubes, and the process was repeated with a second 1 mL aliquot of HIP and the two aliquots combined. The HIP samples were then dried down under a nitrogen stream.
Silica gel plates were prepared in a fume cupboard by initially drawing a line 1.5 cm from the bottom edge of the plate and then drawing sample lanes with a width of 1 cm and a separation of 0.5 cm between lanes. TLC buffer for phospholipids was prepared as a 31:62:7 solvent mix of Methanol:Chloroform:Ammonium Hydroxide. Plates were pre-run in a humid chamber containing 200 mL of the TLC buffer until the solvent front was 1.5 cm from the plate edge, the plate was then allowed to dry. […]

[1] = IV JVC rat PK study at 3 mg/kg; format: in vivo; details: male Sprague Dawley rats, 3 mg/kg IV
Method: Compound 3 was intravenously dosed at 3 mg/kg into a group of 3 individually housed, normally fed male Sprague Dawley rats that had been fitted with jugular vein catheters (JVCs). Dosing was performed with 2 mL/kg dosing volumes with 5% DMSO 95% water used as a dosing vehicle. Serial blood samples (150 μL) were taken from each animal at each time point post dose (0.08 h, 0.25 h, 0.5 h, 1 h, 2 h, 4 h, 8 h, and 24 h) into heparinised Eppendorf tubes (containing 5 μL heparin) on ice containing an equal quantity of water. Two 100 μL aliquots were then placed in duplicate 96 well plates on dry ice. Samples were stored in the freezer at −20° C. until bioanalysis.
Samples were defrosted and acetonitrile (containing internal standard) was used to precipitate the proteins. All the samples were mixed, centrifuged and the supernatants analysed by LC-MS-MS according to the following procedures: • 1. 20 μL plasma was transferred to a v-bottom 96-well plate. • 2. 80 μL acetonitrile (ACN) containing IS was added to each well. • 3. The plate was sealed and gently mixed for approximately 30 s. • 4. Plates were centrifuged for 10 min at 3500 rpm. • 5. 50 μL supernatant was transferred to a fresh v-bottom 96-well plate containing 100 μL MilliQ water.
Plates were thermo-sealed and stored at 4° C. until analysis. The resulting PK parameters are shown below in Table 1.

With “2-(5Z,8Z,11Z,14Z)-icosa-5,8,11,14-tetraenamidoethyl (trimethylammonio) ethylphosphate [Compound 3]” as the substance, how does the “Transport via Mfsd2a: TLC band intensity in WT cells compared with D97A mutant Mfsd2a and/or empty vector cells” value (hMfsd2a) read?
The value was “transported via Mfsd2a”.

And the AUC0-inf [1]?
The AUC0-inf was 2561.0 ng·h/mL.

What about the AUC0-t [1] of the same substance?
The AUC0-t was 2462.2 ng·h/mL.

What about the CI [1] of the same substance?
The CI was 31 mL/min/kg.

And the Vdss [1]?
The Vdss was 6.3 L/kg.

What about the t1/2 [1] of the same substance?
Its t1/2 is 7.4 h.
